Patent US10647711B2, “Azepin-2-one derivatives as RSV inhibitors” (Enanta Pharmaceuticals, Inc., priority 2017, dated 2020)

tested on: Human RSV-A (“Long” strain); experiment: RSV-A in vitro cytoprotection assay in HEp-2 cells (ATPlite readout); assay type: cell-based; details: human respiratory syncytial virus, 96 h, 4-day incubation, ATPlite cell viability (CPE protection)
Description: RSV is a single stranded negative sense RNA virus that causes respiratory tract infections which can be dangerous to infants, the elderly, and immunosuppressed individuals. Currently there is no vaccine, and therapeutic options are both costly and of limited effectiveness. These approved treatments are Ribavirin, and Palivizumab/Synagis (a monoclonal antibody). RSV has two genotypes, A and B, which differ primarily in the structure of the virus' surface “G” attachment protein. Our current primary screen focusses on RSV-A and uses an in vitro cytoprotection assay where compounds are added in 2-fold dilutions to cells which are then subjected to fully replicative viral particles. Cell viability is measured several days later along with separate measurements of compound cytotoxicity. This report focuses on the results of our most recent screening of compounds.
HEp-2 cells, (originally derived from tumors grown in irradiated-cortisonised weanling rats that had been injected with epidermoid carcinoma tissue from a person's larynx, but later found to be indistinguishable from HeLa cells by PCR DNA analysis), were used for the culturing of genotype A, “Long” strain RSV. Flasks were inoculated with RSV and viral stocks were collected once cytopathic effect (CPE) was greater than 90%. Viral stocks in 25% sucrose media were snap frozen using liquid nitrogen to increase viral stability. Viral stock titers were quantified by tissue culture infectious dose 50% (TCID50) using 8,000 cells per well and 3-fold viral dilutions across a 96-well plate, cultured for 4 days.
Following extensive parameter testing, the final assay is run as follows: HEp-2 cells are seeded into the inner 60 wells of a 96-well plate at 8,000 cells per well in a volume of 50 μL using Growth Media (DMEM without phenol red, 1% L-Glut, 1% Penn/Strep, 1% nonessential amino acids, 10% FBS). 2-fold serial dilutions of control and test compounds are added to the wells in duplicate in a total volume of 25 μL. Viral stock is then added to the wells in a volume of […] the total volume of each well to 100 μL. Each 96-well plate has a control column of 6 wells with cells and virus but no compound (negative control, max CPE), a column with cells but no compound or virus (positive control, minimum CPE), and a column with no cells or virus or compound (background plate/reagent control). The control wells with cells but no virus are given an additional 25 uL of growth media containing an equal quantity of sucrose as those wells receiving the viral stock in order to keep consistent in media and volume conditions. The outer wells of the plate are filled with 125 μL of growth media to act as a thermal and evaporative moat around the test wells. Following a 4-day incubation period, the plates are read using ATPlite (50 uL added per well), which quantifies the amount of ATP (a measure of cell health) present in each well. Assay plates are read using the Envision luminometer. […] EC50 ranges are as follows: A<1 μM; B 1-5 μM; C>5 μM.

Row | SMILES | EC50
1 | O=C1Nc2ccccc2C(c2ccccc2)=C[C@@H]1Nc1nnc(-c2ccc(F)cc2)o1 [Example 1, (S)-3-((5-(4-fluorophenyl)-1,3,4-oxadiazol-2-yl)amino)-5-phenyl-1,3-dihydro-2H-benzo[b]azepin-2-one] | 1000 to 5000 nM
2 | O=C1Nc2ccccc2C(c2ccccc2)=C[C@@H]1Nc1nnc(-c2cn(-c3ccccn3)nc2N2CCOCC2)o1 [Example 2] | 1000 to 5000 nM
3 | O=C1Nc2ccccc2C(c2ccccc2)=C[C@@H]1Nc1nnc(-c2ccc(N3CCOCC3)cc2F)o1 [Example 3] | 1000 to 5000 nM
4 | O=C1Nc2ccccc2C(c2ccccc2)=C[C@@H]1Nc1nnc(-c2cccnc2N2CCOCC2)o1 [Example 4] | 1000 to 5000 nM
5 | O=C1Nc2ccccc2C(c2ccccc2)=C[C@@H]1Nc1nnc(-c2ncc(C3CC3)cc2N2CCOCC2)o1 [Example 5] | < 1000 nM
6 | C#Cc1cnc(-c2nnc(N[C@H]3C=C(c4ccccc4)c4ccccc4NC3=O)o2)c(N2CCOCC2)c1 [Example 6] | < 1000 nM
7 | O=C1Nc2ccccc2C(c2ccccc2)=C[C@@H]1Nc1nnc(-c2ncc(Br)cc2N2CCOCC2)o1 [Example 7] | < 1000 nM
8 | N#Cc1cnc(-c2nnc(N[C@H]3C=C(c4ccccc4)c4ccccc4NC3=O)o2)c(N2CCOCC2)c1 [Example 8] | < 1000 nM
9 | O=C1Nc2ccccc2C(c2ccccc2)=C[C@@H]1Nc1nnc(-c2ncc(C3CCC3)cc2N2CCOCC2)o1 [Example 9] | 1000 to 5000 nM
10 | O=C1Nc2ccccc2C(c2ccccc2)=C[C@@H]1Nc1nnc(-c2ncc(C(F)(F)F)cc2N2CCOCC2)o1 [Example 10] | < 1000 nM
11 | O=C1Nc2ccccc2C(c2ccccc2)=C[C@@H]1Nc1nnc(-c2nc(C3CC3)sc2N2CCOCC2)o1 [Example 11, (S)-3-((5-(2-cyclopropyl-5-morpholinothiazol-4-yl)-1,3,4-oxadiazol-2-yl)amino)-5-phenyl-1,3-dihydro-2H-benzo[b]azepin-2-one] | < 1000 nM
12 | O=C1Nc2ccccc2C(c2ccccc2)=C[C@H]1Nc1nnc(-c2nc(C3CC3)sc2N2CCOCC2)o1 [Example 12, (R)-3-((5-(2-cyclopropyl-5-morpholinothiazol-4-yl)-1,3,4-oxadiazol-2-yl)amino)-5-phenyl-1,3-dihydro-2H-benzo[b]azepin-2-one] | < 1000 nM
13 | O=C1Nc2ccccc2C(c2ccccc2)=C[C@@H]1Nc1nnc(-c2nc(-c3cccnc3)sc2N2CCOCC2)o1 [Example 13, (S)-3-((5-(5-morpholino-2-(pyridin-3-yl)thiazol-4-yl)-1,3,4-oxadiazol-2-yl)amino)-5-phenyl-1,3-dihydro-2H-benzo[b]azepin-2-one] | < 1000 nM
14 | O=C1Nc2ccccc2C(c2ccccc2)=C[C@H]1Nc1nnc(-c2nc(-c3cccnc3)sc2N2CCOCC2)o1 [Example 14, (R)-3-((5-(5-morpholino-2-(pyridin-3-yl)thiazol-4-yl)-1,3,4-oxadiazol-2-yl)amino)-5-phenyl-1,3-dihydro-2H-benzo[b]azepin-2-one] | 1000 to 5000 nM
15 | O=C(Nc1ccccc1F)N[C@H]1C=C(c2ccccc2)c2ccccc2NC1=O [Example 15, (S)-1-(2-fluorophenyl)-3-(2-oxo-5-phenyl-2,3-dihydro-1H-benzo[b]azepin-3-yl)urea] | > 5000 nM
16 | O=C1Nc2ccccc2C(c2ccccc2)=C[C@@H]1Nc1nc2ccccc2o1 [Example 16, (S)-3-(benzo[d]oxazol-2-ylamino)-5-phenyl-1,3-dihydro-2H-benzo[b]azepin-2-one] | > 5000 nM
17 | O=C(N[C@H]1C=C(c2ccccc2)c2ccccc2NC1=O)c1ccccc1 [Example 17, (5)-N-(2-oxo-5-phenyl-2,3-dihydro-1H-benzo[b]azepin-3-yl)benzamide] | > 5000 nM
